{"source": "paper PMC11324436", "about": "(2024)", "test_in_all_cases": "NMM fluorescence enhancement", "key": {"[1]": {"tested_on": "15THR1A (DNA, aptamer) GGTTGGTGTGGTTGG", "details": "10 mM KCl, 2 mM MgSO4 (added), 0.37 mM CaCl2; SSMB1 pH 5.9, 23 °C; 2 µM aptamer, 2 µM NMM"}, "[2]": {"tested_on": "55PYO2A (DNA, aptamer) CTAGGAATCAGGAGCGAATGTTAGAGTATTTGGATAGTATGTTTATTGTATCGGC", "details": "10 mM KCl, 2 mM MgSO4 (added), 0.37 mM CaCl2; SSMB1 pH 5.9, 23 °C; 2 µM aptamer, 2 µM NMM; no enhancement over control"}, "[3]": {"tested_on": "Oligo 5637 (DNA, single strand) GCCTGTTGTGAGCCTCCTGTCGAAGTATGCGATAGGAGCGAATGATATATATCAAGTTACCACACGGATGTACTTGCTTGAGCGTTTATTCTTGTCTCCC", "details": "10 mM KCl, 2 mM MgSO4 (added), 0.37 mM CaCl2; SSMB1 pH 5.9, 23 °C; 2 µM aptamer, 2 µM NMM; no enhancement over control"}, "[4]": {"tested_on": "55PYO4A (DNA, aptamer) GATCGGAATGGGAGCGAATGAGGAGGGAGCGCGGACATGGTGCAGCAGCCCGACG", "details": "10 mM KCl, 2 mM MgSO4 (added), 0.37 mM CaCl2; SSMB1 pH 5.9, 23 °C; 2 µM aptamer, 2 µM NMM"}}, "data": [{"smiles": "CCc1c(C)c2cc3nc(cc4nc(cc5c(CC)c(C)c(cc1[nH]2)n5C)C(C)=C4CCC(=O)O)C(CCC(=O)O)=C3C", "values": [{"measurement": "binding", "setting": "[1]", "value": "yes"}, {"measurement": "binding", "setting": "[2]", "value": "no"}, {"measurement": "binding", "setting": "[3]", "value": "no"}, {"measurement": "binding", "setting": "[4]", "value": "yes"}]}]}
